“And” between values parts separate entries of the source, which are not always exact repeats. Identical values can stand only once. Like-named read-outs stand apart in the source and are kept apart here. Marks after values point to notes of the source that are not given here.
Legend:
[1] = tested on: Shh signaling; assay: Shh signaling activity of forelimb bud lysate in Shh-Light 2 cells (Gli-luciferase reporter); format: cell-based, mouse; conditions: lysate of E10.5 right forelimb bud cells, 24 h after 4 mg/kg to dam
Procedure: Shh Signaling Activity. Pregnant C57BL/6 mice were treated with CdSo4, 4 mg/kg, or PBS, 10 mL/kg, at 9:00 pm on day 9 of gestation. Twenty-four hours post-treatment the dams were sacrificed. The implantation sites were removed and frozen in liquid nitrogen. Samples were stored at −80° C. until use in the Shh activity assay.
To create a sample of cell lysate, a litter of implantation sites was thawed and the embryos dissected free of their surrounding membranes. Somites were counted and the embryo limb staged according to standard practices (Wanek, et al. (1989) J. Exp. Zool. 249:41-49). […] Samples were sonicated and DNA measured using the HOEFER™ DYNA QUANT™ 200 Fluorimeter. After DNA quantification, fetal bovine serum was added so that the final concentration of serum was 0.5%.
Assay of SHH signaling activity was conducted in Shh-Light 2 cells, an NIH-3T3-derived stable cell line containing an integrated Gli-luciferase and constitutive Renilla luciferase reporters. […] Using the DUAL-LUCIFERASE® Reporter Assay System (PROMEGA®, Madison, Wis.), luciferase activity was measured and normalized to a Renilla control.
A more direct and specific assay of Shh signaling is provided in Shh-Light 2 cells. […] Culture of these cells with a medium or cellular homogenate containing Shh activates reporter expression and that activity can be quantitated luminometrically.

[2] = tested on: Ptch1; assay: Whole mount in situ hybridization, Ptch1; format: in vivo, mouse; conditions: right forelimb, 24 hours after treatment
Procedure: (§1) Whole Mount In Situ Hybridization. Assays were performed in accordance with standard methods (Wilkinson and Nieto (1993) Meth. Enzymol. 225:361-373). Embryos from control and cadmium-exposed pregnancies were processed together in the same vessel, examined and photographed using an OLYMPUS® SZX9 stereomicroscope. Digoxigenin-labeled riboprobes were transcribed from linearized DNA templates.
(§2) The expression pattern of four genes (i.e., Shh, Ptch1, Gli3, and Fgf8) in the right forelimb of control and cadmium-exposed embryos was examined by whole mount in situ hybridization 24 hours after treatment. The expression of Shh was restricted to the posterior mesenchymal cells of the developing murine limb bud.

[3] = tested on: Fgf8; assay: Whole mount in situ hybridization, Fgf8; format: in vivo, mouse; conditions: day 10.5, 24 hours after administration
Procedure: as §1, §2

[4] = tested on: C57BL/6CrIBR mice; assay: Cadmium-induced forelimb ectrodactyly in fetuses of treated pregnant mice; format: in vivo, mouse
Procedure: Cadmium-induced Forelimb Ectrodactyly. C57BL/6CrIBR mice were purchased from Charles River Laboratories (Wilmington, Mass.). Individual males were placed in female cages for the last 2-3 hours of the 12 hour dark cycle (10:00 pm to 10:00 am). The presence of a vaginal plug indicated a successful mating and 9:00 am was considered time zero of pregnancy. On day 7 of gestation, plugged females were lightly anesthetized with Isofluorane and checked for pregnancy by abdominal palpation. The pregnant females were administered CdSO4 (SIGMA, St. Louis, Mo.), 4 mg/kg in phosphate-buffered saline (PBS), intraperitoneally, at 9:00 pm on day 9. These pregnant females were then allowed free access to food and water until day 18 when they were sacrificed by Isofluorane overdose. The fetuses were removed from the uterus and prepared for skeletal analysis by double-staining of cartilage and bone (Kuczuk and Scott (1984) supra).
CdSo4, 4 mg/kg, was administered intraperitoneally on day 9 of gestation.

[5] = tested on: Shh; assay: Whole mount in situ hybridization, Shh; format: in vivo, mouse; conditions: right forelimb, 24 hours after treatment
Procedure: as §1, §2

[6] = tested on: Gli3; assay: Quantitative RT-PCR of forelimb buds, Gli3; format: in vivo, mouse; conditions: limb buds of day 10.5 embryos, normalized to tubulin
Procedure: (§3) Real Time Reverse Transcribed-Polymerase Chain Reaction (RT-PCR). Precise levels of message expression of Shh, Ptch1, and Gli3 were performed by RT-PCR. […] Right and left forelimb buds from a single litter (n=3) were pooled separately and equal amounts of total RNA were reverse-transcribed using […]™ II (INVITROGEN™, Carlsbad, Calif.) in the presence of oligo-dT or random primers. For quantitative PCR, aliquots of the reverse transcription reaction were amplified in the presence of SYBR® Green (Quantitect SYBR® green PCR kit; QIAGEN®, Valencia, Calif.) and gene specific primers for Shh, Ptch1, Gli3 and aTub. […] The PCR amplifications and monitoring of product generation per cycle were performed using a DNA Engine OPTICON® 2 Continuous Fluorescence Detector and evaluated using its software. Gene expression levels were determined by gene-specific standard curves in the linear amplification phase. All values were normalized to tubulin within the same sample.

[7] = tested on: Gli3; assay: Whole mount in situ hybridization, Gli3; format: in vivo, mouse; conditions: right forelimb, 24 hours after treatment
Procedure: as §1, §2

[8] = tested on: Shh; assay: Quantitative RT-PCR of forelimb buds, Shh; format: in vivo, mouse; conditions: limb buds of day 10.5 embryos, normalized to tubulin
Procedure: as §3

[9] = tested on: Shh-dependent pancreatic cancer cell line L3.6pl; format: cell-based; conditions: for Cell Growth (normalized): normalized to cell growth in carrier
[10] = tested on: Ptch1; assay: Quantitative RT-PCR of forelimb buds, Ptch1; format: in vivo, mouse; conditions: limb buds of day 10.5 embryos, normalized to tubulin
Procedure: as §3

[11] = tested on: mouse embryo zone of polarizing activity (ZPA); assay: Polarizing activity of mouse embryo ZPA grafted to chick wing bud; format: in vivo
Procedure: Polarizing Activity. Fertilized White Leghorn eggs (SPAFAS) were incubated at 38° C. On the second day, 1 to 2 mL of albumin were removed so that the eggs could be windowed the next day without damaging the embryo. After windowing, 3 drops of penicillin/streptomycin (50 units/mL) were added and the window closed with SCOTCH™ tape. On the fourth day of incubation a piece of day 10.5 mouse embryo right forelimb was excised from the posterior aspect (i.e., ZPA) of cadmium sulfate- or PBS-exposed embryos and grafted between the ectoderm and mesenchyme at the anterior margin of a stage 19/20 (Hamburger and Hamilton (1951) J. Morphol. 88:49-92) chick right wing bud. After grafting, 3 drops of penicillin/streptomycin were added, the window closed with tape and the egg replaced in the incubator for 7 additional days. At this time the chick embryo was sacrificed and the right wing bud processed for skeletal examination (Kuczuk and Scott (1984) supra). After staining, the digit pattern was determined and the index of polarizing activity was assessed according to standard methods (Honig, et al. (1981) J. Embryol. Exp. Morph. 62:203-216),

[12] = tested on: mouse embryo zone of polarizing activity (ZPA); conditions: Bell, et al. (1999); cited from earlier work
[13] = 4 mg/kg i.p. day 9 of gestation, 8 dams, 68 implantation sites
[14] = 4 mg/kg i.p. day 9 of gestation, fetuses examined day 18

Cadmium Sulfate
Shh signaling level compared to lysate from control embryo right forelimb buds [1]: 25% | Ptch1 expression pattern (in words) [2]: unchanged | Fgf8 staining (in words) [3]: slight truncation of Fgf8 staining posteriorly | Fetuses with right forelimb affected by postaxial ectrodactyly ([4]; 4 mg/kg i.p. day 9): 78% | Number of fetuses with ectrodactyly, Bilateral R < L ([4]; 4 mg/kg i.p. day 9): 3 | Number of fetuses with ectrodactyly, Bilateral R = L ([4]; 4 mg/kg i.p. day 9): 21 | Number of fetuses with ectrodactyly, Bilateral R > L ([4]; 4 mg/kg i.p. day 9): 5 | Number of fetuses with ectrodactyly, LFL Only ([4]; 4 mg/kg i.p. day 9, left forelimb only): 4 | Number of fetuses with ectrodactyly, RFL Only ([4]; 4 mg/kg i.p. day 9, right forelimb only): 12* | No. Resorptions [4, 13]: 15 | Resorptions (%) [4, 13]: 22% | Fetuses with Postaxial Forelimb Ectrodactyly (%) [4, 14]: 85% | No. Fetuses with Postaxial Forelimb Ectrodactyly [4, 14]: 45 | Shh expression location or intensity (in words) [5]: No discernable difference | Gli3 mRNA level (in words) [6]: A reduction of mRNA levels was not observed | Gli3 expression (in words) [7]: did not alter Gli3 expression | Shh mRNA level (in words) [8]: A reduction of mRNA levels was not observed | Inhibition of proliferation (in words) ([9]; comparison of inhibitors): more effectively than cyclopamine and acetazolamide | Cell Growth (normalized) ([9]; inhibitor 1 μM): 1.0341 | Cell Growth (normalized) ([9]; inhibitor 10 μM): 0.9007 | Cell Growth (normalized) ([9]; inhibitor 30 μM): 0.7200 | Cell Growth (normalized) ([9]; inhibitor 100 μM): 0.0041 | Cell Growth (normalized) ([9]; inhibitor 1000 μM): 0.0029 | Ptch1 mRNA level (in words) [10]: A reduction of mRNA levels was not observed | Capability of ZPA to induce limb reduplication (in words) ([11]; day 10.5 mouse embryo ZPA after exposure): severely inhibited | Induced Digit Pattern ([11]; individual grafts of day 10.5 ZPA from exposed embryos, x = unidentifiable partial duplicated digit, listed as CdSo4): 22234 and 234 (4×)

CC(=O)Nc1nnc(S(N)(=O)=O)s1 [Acetazolamide, reference compound]
Signaling by Shh protein measured by polarizing activity of ZPA (in words) [12]: almost totally abolished | Cell Growth (normalized) ([9]; inhibitor 10 μM): 1.0312 | Cell Growth (normalized) ([9]; inhibitor 100 μM): 1.0370 | Cell Growth (normalized) ([9]; inhibitor 1000 μM): 1.0130

Source: patent US20080008768A1, “Compositions and Methods for Inhibiting Sonic Hedgehog Activity” (priority 2004, published 2008)
